Reference: US20230391796A1, “GLYCOSIDASE INHIBITORS AND USES THEREOF” (UNIVERSIDAD DE SEVILLA (US) -UNIVERSITY OF SEVILLE (US), priority 2020, published 2023)
Counter-ions that a name gives are not always drawn.

Experiments:
[1] = target: β-N-acetylglucosaminidase (from jack bean); experiment: Inhibition assay against commercial β-N-acetylglucosaminidase (jack bean), p-nitrophenyl N-acetyl-β-D-glucosaminide substrate; assay type: biochemical; conditions: pH 5.5, 37° C.; average of three determinations ± s.e.m.; NI = no inhibition detected at 200 μM; read-out: Jack beans Hex
Experimental: (§1) Inhibition Assays Against Commercial β-N-acetylglucosaminidases
(§2) Inhibition constant (Ki) values were determined by spectrophotometrically measuring the residual hydrolytic activities of the glycosidases against p-nitrophenyl N-acetyl-β-D-glucosaminide. […] Each assay was performed in phosphate-citrate buffer and the reactions were initiated by addition of the enzyme to a solution of the substrate in the absence or presence of various inhibitor concentrations. The mixture was incubated for 10-30 min at 37° C. and the reaction was quenched by addition of 1 M Na2CO3. Reaction times were appropriate to obtain 10-20% conversion of the substrate in order to achieve linear rates. The absorbance of the resulting mixture was determined at 405 nm. Approximate values of Ki were determined using a fixed concentration of substrate (around the Km value for the different glycosidases) and various inhibitor concentrations. Full Ki determinations and enzyme inhibition mode were determined from the slope of Lineweaver-Burk plots and double reciprocal analysis using a Microsoft Office Excel 2007 program.

[2] = target: β-N-acetylglucosaminidase (from bovine kidney); experiment: Inhibition assay against commercial β-N-acetylglucosaminidase (bovine kidney), p-nitrophenyl N-acetyl-β-D-glucosaminide substrate; assay type: biochemical; conditions: pH 5.5, 37° C.; average of three determinations ± s.e.m.; NI = no inhibition detected at 200 μM; read-out: Bovine kidney Hex
Experimental: as §1, §2

[3] = target: β-N-acetylglucosaminidase (from human placenta); experiment: Inhibition assay against commercial β-N-acetylglucosaminidase (human placenta), p-nitrophenyl N-acetyl-β-D-glucosaminide substrate; assay type: biochemical; conditions: pH 5.5, 37° C.; average of three determinations ± s.e.m.; read-out: Human placenta Hex
Experimental: as §1, §2

[4] = target: T1, hOGA (Homo sapiens, UniProt O60502); experiment: Inhibition assay against hOGA, resorufin N-acetyl-β-D-glucosaminide fluorescence; assay type: biochemical; conditions: 0.2 nM hOGA, 25 μM substrate, pH 7.1; Morrison Ki
T1 sequence (O60502 1-916): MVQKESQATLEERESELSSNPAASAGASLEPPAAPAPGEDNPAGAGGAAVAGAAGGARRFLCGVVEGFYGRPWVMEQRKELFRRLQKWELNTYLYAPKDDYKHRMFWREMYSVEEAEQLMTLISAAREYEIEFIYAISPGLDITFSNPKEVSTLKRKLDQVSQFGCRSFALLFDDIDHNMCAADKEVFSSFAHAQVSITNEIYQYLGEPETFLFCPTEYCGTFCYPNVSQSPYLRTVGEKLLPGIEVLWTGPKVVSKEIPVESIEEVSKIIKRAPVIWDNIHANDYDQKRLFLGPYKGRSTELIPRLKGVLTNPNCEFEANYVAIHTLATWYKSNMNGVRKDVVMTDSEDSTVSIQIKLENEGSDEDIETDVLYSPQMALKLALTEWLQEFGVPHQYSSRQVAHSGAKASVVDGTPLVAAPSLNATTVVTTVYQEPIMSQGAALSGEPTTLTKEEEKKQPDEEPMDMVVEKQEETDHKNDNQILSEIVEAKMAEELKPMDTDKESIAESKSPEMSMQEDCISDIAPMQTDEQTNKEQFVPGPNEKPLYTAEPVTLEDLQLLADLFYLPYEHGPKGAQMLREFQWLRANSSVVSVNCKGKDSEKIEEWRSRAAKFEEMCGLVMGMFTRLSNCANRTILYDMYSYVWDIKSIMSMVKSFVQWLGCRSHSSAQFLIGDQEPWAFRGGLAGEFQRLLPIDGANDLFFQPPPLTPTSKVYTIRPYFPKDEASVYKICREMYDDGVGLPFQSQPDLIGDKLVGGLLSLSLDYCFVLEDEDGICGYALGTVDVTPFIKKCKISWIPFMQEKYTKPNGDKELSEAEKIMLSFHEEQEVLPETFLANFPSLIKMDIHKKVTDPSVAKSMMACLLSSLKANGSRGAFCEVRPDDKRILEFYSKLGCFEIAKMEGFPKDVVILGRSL
Experimental: Inhibition Assays Against hOGA
Km=25 μM was measured with these conditions. Inhibition assays were run at 0.2 nM [hOGA] in the same buffer, in the presence or absence of various concentrations of inhibitors and at a fixed substrate concentration of 25 μM and 1% DMSO. First, inhibitor was serially diluted to the desired range of concentrations in 2% DMSO buffer. Next, 50 μL of inhibitor solutions at various concentrations in 2% DMSO Buffer was added to 50 μL of 0.8 nM enzyme and allowed to incubate at 25° C. for 5 minutes. 100 uL of 50 μM and 1% DMSO substrate was then added and reaction mixture was immediately mixed and aliquoted in 45 μL triplicates to a CORNING 384 well black plate. Fluorescence signal was measured continuously for 20 minutes at 37° C. in a BioTek Neo 2 Plate reader set at excitation and emission wavelengths of 572 and 610 nm, respectively. Max reaction rates for all inhibitor concentrations were calculated within Gen5 BioTek reader software. % Activity was subsequently calculated for each inhibitor concentration against the max reaction rate of uninhibited hOGA. GraphPad Prism 2016 was used to approximate the Morrison Ki values for each inhibitor.

[5] = target: T2, Recombinant Human Hexosaminidase A (HexA) (Homo sapiens, UniProt P06865); experiment: Inhibition assay against rhHexA, 4-methylumbelliferone-N-acetyl-β-D-glucosaminide fluorescence; assay type: biochemical; conditions: IC50 for lysosomal hHexA; NI = no inhibition detected at 200 μM
T2 construct: purchased R&D Systems 6237-GH-020
T2 sequence (P06865 89-529): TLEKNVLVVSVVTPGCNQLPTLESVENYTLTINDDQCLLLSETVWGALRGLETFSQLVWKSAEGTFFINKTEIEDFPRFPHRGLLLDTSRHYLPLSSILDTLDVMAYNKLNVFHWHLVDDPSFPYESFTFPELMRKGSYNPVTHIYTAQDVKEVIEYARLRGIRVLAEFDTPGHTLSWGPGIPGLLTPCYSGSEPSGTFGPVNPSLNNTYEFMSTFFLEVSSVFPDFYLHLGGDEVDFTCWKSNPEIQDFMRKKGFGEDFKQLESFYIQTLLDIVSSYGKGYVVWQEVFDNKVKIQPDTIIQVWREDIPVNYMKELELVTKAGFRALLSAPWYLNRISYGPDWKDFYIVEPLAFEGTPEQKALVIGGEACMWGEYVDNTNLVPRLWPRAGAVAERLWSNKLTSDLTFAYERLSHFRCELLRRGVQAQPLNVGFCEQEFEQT
Experimental: Inhibition Assays Against rhHexA
Human Hexosaminidase A (HexA) enzyme, purchased from R&D Systems (cat# 6237-GH-020), were determined by measuring the fluorescent signal corresponding to the rate of hydrolytic activity against the commercially available artificial substrate, 4-Methylumbelliferone-N-acetyl-β-D-glucosaminide. HexA activity assays were performed in a buffer of 100 mM sodium citrate, 250 NaCl, pH 4.5 and 1.0 nM [HexA], then stopped after 20 minutes with a solution of 1.0 M Tris, pH 9.5 to enhance fluorescent signal. Preliminary experiments have shown that reaction rates are linear for 20 minutes after substrate addition, and that 1.0 M Tris at pH 9.5 is sufficient for stopping activity, as signal is stable after stopping. Inhibition assays were run in the presence or absence of various concentrations of inhibitors and at a fixed substrate concentration of 100 μM and 1% DMSO. First, inhibitor was serially diluted to the desired range of concentrations in 2% DMSO buffer. Next, 25 μL, of inhibitor solutions at various concentrations in 2% DMSO Buffer was added to 25 μL, of 4.0 nM enzyme and allowed to incubate at 25° C. for 5 minutes. 50 μL of 200 μM and 1% DMSO substrate was then added and allowed to react for 20 minutes. 100 μL of stop solution was added to reaction mixture, and immediately mixed and aliquoted in 45 μL triplicates to a CORNING 384 well black plate. Fluorescence signal was measured in a BioTek Neo 2 Plate reader set at excitation and emission wavelengths of 355 and 450 nm, respectively. % Activity was subsequently calculated for each inhibitor concentration against the fluorescence signal of uninhibited HexA. […]

[6] = In vivo pharmacokinetics, plasma and brain concentrations; set-up: species or system C57BL/6 mice; conditions: 3 mg/kg single dose
Experimental: Mean plasma concentration (ng/mL) of compound 4 in C57BL/6 mice after 3 mg/kg i.v. administration.
Mean brain concentration (ng/mL) of 4 in C57BL/6 mice after 3 mg/kg i.v. administration
Assay for Determination of the in vivo Pharmacokinetics.
The pharmacokinetic profiles of the compounds to be tested were evaluated in vivo in C57BL/6 mice (n=14) following a 3 mg/kg […] dose.

Ki [1] [nM]	Ki [2] [nM]	Ki [3] [nM]	Ki [4] [nM]	IC50 [5] [nM]	brain concentration, start of the decrease (FIG. 2) ([6]; homogenized brain, initial value) [ng/g]	plasma concentration, start of the decrease (FIG. 1) ([6]; plasma, initial value) [ng/mL]	concentration at 24 h ([6]; C57BL/6, mouse, intravenous, homogenized brain, 24 h, read-out: brain concentration after 24 h (FIG. 2)) [ng/g]	concentration at 12 h ([6]; C57BL/6, mouse, intravenous, plasma, 12 h, read-out: plasma concentration after 12 h (FIG. 1)) [ng/mL]	SMILES
850 ± 60	570 ± 40	240 ± 20	24.1	990					CCCCN=C1SCC2C(O)C(O)C(NC(C)=O)CN12 (stereo not drawn) [Compound 1, 2-Acetamido-5-N,6-S-(N′-butyliminomethylidene)-1,2-dideoxy-6-thionojirimycin Hydrochloride]
1300 ± 100	190 ± 20	240 ± 20	20.2	580					CCCCCCCCN=C1SCC2C(O)C(O)C(NC(C)=O)CN12 (stereo not drawn) [Compound 2, 2-Acetamido-1,2-dideoxy-5-N,6-S-(N′-octyliminomethylidene)-6-thionojirimycin Hydrochloride]
2800 ± 200	700 ± 50	580 ± 40	399	410					CC(=O)N[C@H]1CN2/C(=N/c3ccccc3)SC[C@@H]2[C@@H](O)[C@@H]1O [Compound 3, 2-Acetamido-1,2-dideoxy-5-N,6-S-(N′-phenyliminomethylidene)-6-thionojirimycin Hydrochloride]
750 ± 40	460 ± 30	420 ± 30	2.99	560	26	1100	7.5	0.78	CC(=O)N[C@H]1CN2/C(=N/Cc3ccccc3)SC[C@@H]2[C@@H](O)[C@@H]1O [Compound 4, 2-Acetamido-5-N,6-S-(N′-benzyliminomethylidene)-1,2-dideoxy-6-thionojirimycin Hydrochloride]
